We go through 1 compound from US8173682B2, “Substituted pyridones as inhibitors of poly(ADP-ribose) polymerase (PARP)” (Aventis Pharmaceuticals Inc., priority 2004, dated 2012).

Counter-ions that a name gives are not always drawn.

Assay [1] addresses T1, recombinant human PARP (PARP1) (Homo sapiens, UniProt P09874).
T1 construct: Full length human PARP (PARP1) is assembled from PCR fragments; His6 tag with TEV site, from the pFastBac-HTb vector (own knowledge of the vector); made in house; host or cells: insect cells, baculovirus (Bac-to-Bac, Gibco-BRL)
The assay is described as follows: PARP enzyme assay, Method A (radioactivity or 'ELISA' enzyme assay with partially purified enzyme). The settings on record: recombinant human PARP preparation, radioactive or ELISA enzyme assay. Type of assay: biochemical. Summed up:
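Partially purified recombinant full-length His-tagged human PARP1, baculovirus-expressed. Radioactive format: 100 μg/mL sonicated DNA, 100 μg/mL histones, 100 mM Tris pH 8.0, 10 mM MgCl2, 200 μM labeled NAD, 10 min 37 °C or 60 min RT, TCA-precipitated counts. ELISA format: 250 μM NAD plus biotin-NAD on histone plates, TMB A450.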
(In general: ELISA stands for enzyme-linked immunosorbent assay.)

The test system of assay [2] is intracellular synthesis of poly(ADP-ribose) in HL60 cells. In words: Cell-based PARP assay (poly(ADP-ribose) immunodetection in fixed cells). As to conditions: Homo sapiens, HL-60, overnight incubation with compound, serum-free media. Here is the method:
The following example illustrates the efficacy of the compounds of this invention in inhibiting the effects of PARP in a cell based assay.
Reagents: Media RMPI 1640+Glutamax: Gibco 61870-044); TBST/milk, TBST (Sigma T93039) containing 5% skimmed milk (Nestle Carnation nonfat dry milk)
HL60 cells at […] in serum free media are seeded into the wells of a 96-well plate at 100 μL/well. The plate is pre-incubated for 3 hr under normal tissue culture conditions. One hundred μL of serum-free media containing compound at 2× the required concentration in 0.6% DMSO are added (or 0.6% DMSO only to controls and blanks). The plate is incubated overnight under normal tissue culture conditions, then centrifuged at 190×g for 5 min at 4° C. to pellet cells. The media is carefully removed by aspiration, and the cells are incubated in 100 μL/well ice-cold 0.56% KCl for 2 min on ice. The plate is centrifuged as above to pellet cells, the KCl removed by aspiration, and 100 μL/well ice-cold methanol added. After 4 min on ice, methanol is removed by aspiration and the cells air-dried for 10-15 min at rt. The cells are washed with PBS×3, then washed with TBST/milk (1 wash, 5 min incubation at rt). The cells are incubated with 100 μL/well 0.25% Triton X 100 in PBS for 10 min at RT, then washed x# with PBS and ×1 with TBST. The cells are blocked for 1 hr with TBST/milk (200 μL/well) and then washed ×1 with TBST. The fixed cells are incubated with primary antibody (Calbiochem cat no. 528815) at 1:2000 dilution in TBST/milk (100 μL/well, overnight at 4 deg C.). The cells are washed with TBST (2 rinses, 1×15 min, 2×5 min at RT). The cells are incubated with secondary antibody (anti-rabbit Ig-biotin conjugate, Amersham RPN1004) in TBST/milk at 1:3500 dilution, 100 μL/well for 1 hr at RT. The cells are washed with TBST (2 rinses, 1×15 min, 2×5 min at RT). The cells are then incubated with 100 μL/well of 4-MUP (Sigma, M3168) in the dark for 4 hrs. The fluorescence is read using a plate reader (excitation at 360 nm, emission at 440 nm). To calculate compound effects, the fluorescence of the blank (no cells) is subtracted from all data. Fluorescence obtained with a standard cell-permeable potent inhibitor at 30 μM is subtracted from all other groups as this appears to represent a true blank. Compound effects can then be determined: a PARP inhibitor blocks the intracellular synthesis of poly(ADP-ribose), and results in a decreased reactivity (reduced final fluorescence) with primary antibody in the fixed and permeabilized cells.
The results obtained from this study are expressed as EC50 (median effective concentration of the test compound that was effective in preventing the cell death—expressed in micromolar (μM) concentration) for each of the tested compounds and are summarized in Table 2.

For orientation: IC50 means the point on the concentration scale where inhibition reaches its midpoint. In general, EC50 refers to the concentration giving half of the maximal effect.

T1 sequence (P09874 whole entry, the tested form may be a part): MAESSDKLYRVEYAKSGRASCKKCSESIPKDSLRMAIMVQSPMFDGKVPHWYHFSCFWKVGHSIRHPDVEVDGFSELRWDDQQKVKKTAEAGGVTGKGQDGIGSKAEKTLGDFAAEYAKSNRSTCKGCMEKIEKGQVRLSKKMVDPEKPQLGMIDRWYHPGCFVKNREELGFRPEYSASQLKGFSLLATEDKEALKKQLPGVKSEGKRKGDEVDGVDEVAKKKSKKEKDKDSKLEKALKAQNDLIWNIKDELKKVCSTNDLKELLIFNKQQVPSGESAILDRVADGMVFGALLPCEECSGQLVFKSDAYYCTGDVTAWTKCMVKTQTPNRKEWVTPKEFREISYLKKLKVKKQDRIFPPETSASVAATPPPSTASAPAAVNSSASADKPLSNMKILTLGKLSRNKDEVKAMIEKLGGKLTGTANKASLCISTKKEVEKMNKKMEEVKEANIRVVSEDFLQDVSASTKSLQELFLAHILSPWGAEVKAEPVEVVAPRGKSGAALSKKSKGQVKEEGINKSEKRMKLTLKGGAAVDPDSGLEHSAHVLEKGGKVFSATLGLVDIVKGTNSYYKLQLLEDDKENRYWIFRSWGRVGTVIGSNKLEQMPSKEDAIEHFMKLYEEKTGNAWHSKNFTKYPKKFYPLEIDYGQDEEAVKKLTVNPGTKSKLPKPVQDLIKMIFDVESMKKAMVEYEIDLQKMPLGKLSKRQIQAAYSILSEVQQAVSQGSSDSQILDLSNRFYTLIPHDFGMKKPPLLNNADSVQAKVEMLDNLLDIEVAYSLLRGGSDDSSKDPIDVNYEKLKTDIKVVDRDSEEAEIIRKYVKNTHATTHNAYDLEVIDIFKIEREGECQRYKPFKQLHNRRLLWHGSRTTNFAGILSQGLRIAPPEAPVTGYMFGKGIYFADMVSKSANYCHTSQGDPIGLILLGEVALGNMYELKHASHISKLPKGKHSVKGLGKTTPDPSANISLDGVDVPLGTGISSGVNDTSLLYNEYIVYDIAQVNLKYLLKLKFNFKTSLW

Regarding `CCc1cc(-c2ccc(CN3CCCCC3)s2)c(C)[nH]c1=O` [Example 148, 3-ethyl-6-methyl-5-(5-piperidin-1-ylmethy-thiophen-2-yl)-1H-pyridin-2-one hydrochloride], the IC50 in assay [1] came to 0.41 µM. In addition, the EC50 in assay [2] was determined as 520 nM.
